Data: patent US8084399B2, “Process for screening of a binding amphiphilic peptides specific for hairpin RNA” (priority 2009, dated 2011)
Where no end group is shown, it is not given here. [ ]: non-standard residue; d: D form. Orn = NCCC[C@H](N)C(=O)O; Dab = NCC[C@H](N)C(=O)O; Dap = NC[C@H](N)C(=O)O

Key:
[1] = test system: IRES domain IV hairpin; test: Fluorescence anisotropy competition with Rev-N-rhodamine probe, binding to IRES hairpin; design: species or system HCV; details: for differentiation coefficient (IRES): (mean Kd to other hairpin RNA)/(Kd to one hairpin RNA); for binding strength to IRES, in words: compared with the original peptide; for Kd: fluorescence anisotropy, 20° C., pH 7.4, read-out: Dissociation constant, IRES
Method: (§1) Binding force to each target hairpin RNA (IRES, RRE, TAR and 16S A-site) was measured by fluorescence polarization using alanine scanned peptide library (1b-1h).
(§2) Particularly, […] of each target RNA was prepared at the concentration of 10 mM, which stood at 65° C. for 10 minutes and then cooled down slowly at room temperature, leading to folding. The amphiphilic peptide was prepared respectively at the concentration of […], which were maintained at 0° C. As a probe, rev peptide labeled with rhodamine (Rev-N-rhodamine) emitting […] fluorescence was prepared at the concentration of 10 mM. Buffer was composed of 140 mM NaCl, 5 mM KCl, 1 mM MgCl2, and 20 mM HEPES (N-2-Hydroxyethylpiperazine-N′-2-Ethanesulfonic Acid, pH 7.4). Fluorescence Anisotropy was measured using AMINCO-Bowman Series Luminescence Spectrometer at 20° C. Ten nM of the probe was added in […] of buffer, to which target RNA was added to induce interaction between the probe and the target RNA. At that time, anisotropy value increased. Then, the synthesized peptide competing with the probe for binding site was added thereto with increasing the concentration slowly. Changes of fluorescence polarization were measured until fluorescence polarization reached as low as the beginning. Considering the concentration and amount of the peptide added, binding force to target RNA was calculated. That is, the binding strength between target RNA and peptide was determined according to the following KaleidaGraph. [Peptide]=Kd(Amax−A)/[Kd(A−A0)+1]×[RNA]−Kd(A−A0)^2[Probe]0/(Amax−A)(Amax−A0)
(§3) Herein, [Peptide] indicates the concentration of peptide, [RNA] indicates the concentration of target RNA, and [Probe]0 indicates the concentration of probe. A is the value of fluorescence anisotropy of sample, Amax is the value of totally bound tracer, and A0 is the value of totally free tracer.

[2] = Circular dichroism (CD), percentage of alpha-helix; type: physicochemical; details: CD at 20° C., condition not given; for Alpha-helical rate (%), second value of pair: value after the slash; for Alpha-helical rate (%), first value of pair: value before the slash
Method: To investigate alpha-helix of the amphiphilic peptide (1a-1h), circular dichroism (CD) was performed. Particularly, CD was measured at 20° C. by using JASCO model J715 spectropolarimeter. Scanning was performed at 190-250 nm three times (bandwidth: 1 nm, datapitch: 0.5 nm, speed: 100 nm/min), which were averaged to obtain CD data. Spectrum was corrected by measuring background spectrum. CD signal was recorded after modulating thereof with mean residue ellipticity [Q]. Percentage (%) of alpha-helix(fn) was calculated by the following formula. [Q]=Qobs[MRW/(10lc)]
MRW=mean residue weight (dividing molecular weight by the number of peptide bond, l=pathway length (cm), c=concentration (mg/mL). fn=([Q]222−[Q]coil)/([Q]helix−[Q]coil) [Q]helix=−40,000[…]+100t [Q]coil=640−45t
[Q]222=mean residue ellipticity at 222 nm (deg cm2 mol-1), [Q]helix=ellipticity of peptide having complete helical structure, [Q]coil=ellipticity of peptide having complete random coil structure, n=number of amino acid, t=° C.

[3] = target: 16S ribosomal RNA A-site; test: Fluorescence anisotropy competition with Rev-N-rhodamine probe, binding to 16S A-site; details: 20° C., pH 7.4, read-out: Dissociation constant, 16S A-site
Method: as §1, §2, §3

[4] = target: RRE hairpin RNA; test: Fluorescence anisotropy competition with Rev-N-rhodamine probe, binding to RRE hairpin RNA; design: species or system HIV; details: 20° C., pH 7.4, read-out: Dissociation constant, RRE
Method: as §1, §2, §3

[5] = target: TAR hairpin RNA; test: Fluorescence anisotropy competition with Rev-N-rhodamine probe, binding to TAR hairpin RNA; design: species or system HIV; details: fluorescence anisotropy, 20° C., pH 7.4; read-out: Dissociation constant, TAR
Method: as §1, §2, §3

Substance	differentiation coefficient (IRES) [1]	binding strength to IRES, in words [1]	Kd [1] [µM]	Alpha-helical rate (%), second value of pair [2] [%]	Alpha-helical rate (%), first value of pair [2] [%]	Kd [3] [µM]	Kd [4] [µM]	Kd [5] [µM]
LKKLLKWLKKLLKLAG [2q, tryptophan scanned second generation peptide]	15	significantly increased	0.00087	71	19	0.017	0.0012	0.021
LKKLLKLLOrnKLLKWAG (LKKLLKLL[Orn]KLLKWAG-NH2; N-terminus assumed; SMILES CC(C)C[C@H](NC(=O)[C@H](CC(C)C)NC(=O)[C@H](CCCCN)NC(=O)[C@H](CCCN)NC(=O)[C@H](CC(C)C)NC(=O)[C@H](CC(C)C)NC(=O)[C@H](CCCCN)NC(=O)[C@H](CC(C)C)NC(=O)[C@H](CC(C)C)NC(=O)[C@H](CCCCN)NC(=O)[C@H](CCCCN)NC(=O)[C@@H](N)CC(C)C)C(=O)N[C@@H](CCCCN)C(=O)N[C@@H](Cc1c[nH]c2ccccc12)C(=O)N[C@@H](C)C(=O)NCC(N)=O) [3f, third generation peptide, both faces modified]	1.0	–	0.0061	58	36	0.01	0.0036	0.0047
LKKLLKLLKKLLKLKG [1a, original amphiphilic 16-mer peptide]	1.4	–	0.045	57	26	0.1	0.022	0.066
WKKLLKLLKKLLKLAG [2n, tryptophan scanned second generation peptide]	2.4	significantly increased	0.00074	65	48	0.00076	0.0025	0.002
LKKLLKLLDabKLLKLAG (LKKLLKLL[Dab]KLLKLAG-NH2; N-terminus assumed; SMILES CC(C)C[C@H](NC(=O)[C@H](CCCCN)NC(=O)[C@H](CC(C)C)NC(=O)[C@H](CC(C)C)NC(=O)[C@H](CCCCN)NC(=O)[C@H](CCN)NC(=O)[C@H](CC(C)C)NC(=O)[C@H](CC(C)C)NC(=O)[C@H](CCCCN)NC(=O)[C@H](CC(C)C)NC(=O)[C@H](CC(C)C)NC(=O)[C@H](CCCCN)NC(=O)[C@H](CCCCN)NC(=O)[C@@H](N)CC(C)C)C(=O)N[C@@H](C)C(=O)NCC(N)=O) [2e, second generation peptide, hydrophilic face modified]	6.5	–	0.0035	57	43	0.017	0.023	0.028
LKKLLKLLKKLLALKG [1g, alanine scanned first generation peptide]	0.47	reduced binding strength	0.21	44	8	0.2	0.09	0.039
LKKLLKLLKKLLDabLAG (LKKLLKLLKKLL[Dab]LAG-NH2; N-terminus assumed; SMILES CC(C)C[C@H](NC(=O)[C@H](CCN)NC(=O)[C@H](CC(C)C)NC(=O)[C@H](CC(C)C)NC(=O)[C@H](CCCCN)NC(=O)[C@H](CCCCN)NC(=O)[C@H](CC(C)C)NC(=O)[C@H](CC(C)C)NC(=O)[C@H](CCCCN)NC(=O)[C@H](CC(C)C)NC(=O)[C@H](CC(C)C)NC(=O)[C@H](CCCCN)NC(=O)[C@H](CCCCN)NC(=O)[C@@H](N)CC(C)C)C(=O)N[C@@H](C)C(=O)NCC(N)=O) [2h, second generation peptide, hydrophilic face modified]	2.0	–	0.0087	34	24	0.025	0.014	0.012
LKKLLKWLKKLLDapLAG (LKKLLKWLKKLL[Dap]LAG-NH2; N-terminus assumed; SMILES CC(C)C[C@H](NC(=O)[C@H](CN)NC(=O)[C@H](CC(C)C)NC(=O)[C@H](CC(C)C)NC(=O)[C@H](CCCCN)NC(=O)[C@H](CCCCN)NC(=O)[C@H](CC(C)C)NC(=O)[C@H](Cc1c[nH]c2ccccc12)NC(=O)[C@H](CCCCN)NC(=O)[C@H](CC(C)C)NC(=O)[C@H](CC(C)C)NC(=O)[C@H](CCCCN)NC(=O)[C@H](CCCCN)NC(=O)[C@@H](N)CC(C)C)C(=O)N[C@@H](C)C(=O)NCC(N)=O) [3c, third generation peptide, both faces modified]	17	–	0.00075	36	29	0.021	0.0097	0.0083
LKKLLKLLKKLWKLAG [2t, tryptophan scanned second generation peptide]	5.9	–	0.0023	58	12	0.017	0.013	0.01
LKKLLDapLLKKLLKLAG (LKKLL[Dap]LLKKLLKLAG-NH2; N-terminus assumed; SMILES CC(C)C[C@H](NC(=O)[C@H](CCCCN)NC(=O)[C@H](CC(C)C)NC(=O)[C@H](CC(C)C)NC(=O)[C@H](CCCCN)NC(=O)[C@H](CCCCN)NC(=O)[C@H](CC(C)C)NC(=O)[C@H](CC(C)C)NC(=O)[C@H](CN)NC(=O)[C@H](CC(C)C)NC(=O)[C@H](CC(C)C)NC(=O)[C@H](CCCCN)NC(=O)[C@H](CCCCN)NC(=O)[C@@H](N)CC(C)C)C(=O)N[C@@H](C)C(=O)NCC(N)=O) [2c, second generation peptide, hydrophilic face modified]	2.4	–	0.0038	61	26	0.012	0.0096	0.0057
LKKLLKLLKKLLKLAG [1h, alanine scanned first generation peptide]	0.96	–	0.049	43	9	0.053	0.025	0.063
LKKLLKLLKALLKLKG [1f, alanine scanned first generation peptide]	1.8	–	0.033	45	17	0.064	0.092	0.025
LKKLLKLLAKLLKLKG [1e, alanine scanned first generation peptide]	1.1	reduced binding strength	0.12	43	12	0.18	0.13	0.074
LKKLLKLWKKLLKLAG [2r, tryptophan scanned second generation peptide]	0.75	–	0.092	59	14	0.065	0.037	0.082
LKKLWKLLKKLLKLAG [2p, tryptophan scanned second generation peptide]	3.3	–	0.0028	56	20	0.012	0.0062	0.0098
